Reference: patent publication US20060100431A1, “Biologically active compounds” (Amura Therapeutics Limited, priority 2002, published 2006)

Each compound was assayed against T1, human cathepsin L (Homo sapiens, UniProt P07711) (assay: Cathepsin L peptidase activity assay (Ki)). Conditions: read-out: Ki, inhibitors of cathepsin L.
T1 construct: purchased CN Biosciences
Type: biochemical
Protocol: Unless otherwise stated, all general chemicals and biochemicals were purchased from either the Sigma Chemical Company, Poole, Dorset, U.K or from Fisher Scientific UK, Loughborough, Leicestershire, U.K. Absorbance assays were carried out in flat-bottomed 96-well plates (Spectra; Greiner Bio-One Ltd., Stonehouse, Gloucestershire, U.K.) using a SpectraMax PLUS384 plate reader (Molecular Devices, Crawley, U.K.). Fluorescence high throughput assays were carried out in either 384-well microtitre plates (Corning Costar 3705 plates, Fisher Scientific) or 96-well ‘U’ bottomed Microfluor W1 microtitre plates (Thermo Labsystems, Ashford, Middlesex, U.K.). Fluorescence assays were monitored using a SpectraMax Gemini fluorescence plate reader (Molecular Devices). For substrates employing either a 7-amino-4-methylcoumarin (AMC) or a 7-amino-4-trifluoromethylcoumarin (AFC) fluorophore, assays were monitored at an excitation wavelength of 365 nm and an emission wavelength of 450 nm and the fluorescence plate reader calibrated with AMC. For substrates employing a 3-amino-benzoyl (Abz) fluorophore, assays were monitored at an excitation wavelength of 310 nm and an emission wavelength of 445 nm; the fluorescence plate reader calibrated with 3-amino-benzamide (Fluka). Unless otherwise indicated, all the peptidase substrates were purchased from Bachem UK, St Helens, Merseyside, UK. Substrates utilizing fluorescence resonance energy transfer methodology (i.e. FRET-based substrates) were synthesized at Incenta Limited using published methods (Atherton & Sheppard, Solid Phase Peptide Synthesis, IRL Press, Oxford, U.K, 1989) and employed Abz (2-aminobenzoyl) as the fluorescence donor and 3-nitro-tyrosine [Tyr(NO2)] as the fluorescence quencher (Meldal, M. and Breddam, K., Anal. Biochem, 195, 141-147, 1991). Hydroxyethylpiperazine ethanesulfonate (HEPES), tris-hydroxylmethyl aminomethane (tris) base, bis-tris-propane and all the biological detergents (e.g. CHAPS, zwittergents, etc.) were purchased from CN Biosciences UK, Beeston, Nottinghamshire, U.K. Glycerol was purchased from Amersham Pharmacia Biotech, Little Chalfont, Buckinghamshire, U.K. Stock solutions of substrate or inhibitor were made up to 10 mM in 100% dimethylsulfoxide (DMSO) (Rathburns, Glasgow, U.K.) and diluted as appropriately required. In all cases the DMSO concentration in the assays was maintained at less than 1% (vol./vol.).
Assay protocols were based on literature precedent (Table 4; Barrett, A. J., Rawlings, N. D. and Woessner, J. F., 1998, Handbook of Proteolytic Enzymes, Academic Press, London and references therein) and modified as required to suit local assay protocols. Enzyme was added as required to initiate the reaction and the activity, as judged by the change in fluorescence upon conversion of substrate to product, was monitored over time. All assays were carried out at 25±1° C.
Bovine cathepsin S, human cathepsin L, human cathepsin H and human cathepsin B were obtained from CN Biosciences. Recombinant human cathepsin S, human cathepsin K and human cathepsin X were obtained from Dr. Boris Turk (Josef Stefan Institute, Ljubljana, Slovenia). Unless otherwise stated, all peptidase activity assays were carried out in 10 mM bis-tris-propane (BTP), pH 6.5 containing 1 mM EDTA, 5 mM 2-mercaptoethanol and 1 mM CaCl2. Human cathepsin H activity assays were carried out in 10 mM BTP pH 6.5, 142 mM NaCl2, 1 mM CaCl2, 1 mM EDTA, 1 mM DTT, 0.035 mM Zwittergent 3-16. Human cathepsin K assays were carried out in 100 mM sodium acetate; pH 5.5 containing 20 mM L-cysteine and 1 mM EDTA (Bossard, M. J., et. al., J. Biol. Chem., 21, 12517-12524, 1996). Human cathepsin X assays were carried out in 100 mM sodium acetate; pH 5.5 containing 20 mM L-cysteine; 0.05% (w/v) Brij 35 and 1 mM EDTA (Santamaria, I., et. al., J. Biol. Chem., 273, 16816-16823, 1998; Klemencic, J, et al., Eur. J. Biochem., 267, 5404-5412, 2000). […]

T1 sequence (P07711 114-333): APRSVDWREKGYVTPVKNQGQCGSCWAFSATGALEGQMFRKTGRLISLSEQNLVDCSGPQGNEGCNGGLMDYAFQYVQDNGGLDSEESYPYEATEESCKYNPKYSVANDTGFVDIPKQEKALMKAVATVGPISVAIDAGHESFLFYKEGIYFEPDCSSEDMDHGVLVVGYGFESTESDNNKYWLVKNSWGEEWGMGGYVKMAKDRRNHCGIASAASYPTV

Ki, < 5 µM:
Nc1ccc(C(=O)N2CC(=O)[C@@H]3[C@H]2CCN3C(=O)[C@H](CSCc2ccccc2)NC(=O)c2ccsc2)cc1 [Example 268, (3aR,6aS)-Thiophene-3-carboxylic acid {(1R)-2-(4-(4-amino-benzoyl)-6-oxo-hexahydro-pyrrolo[3,2-b]pyrrol-1-yl]-1-benzylsulfanylmethyl-2-oxo-ethyl}-amide]
CN(C)c1ccc(C(=O)N[C@@H](Cc2ccc(O)cc2)C(=O)N2CC[C@@H]3[C@H]2C(=O)CN3C(=O)c2cccc(S(C)(=O)=O)c2)cc1 [Example 358, (3aR,6aS)-4-Dimethylamino-N-{(1S)-1-(4-hydroxy-benzyl)-2-[4-(3-methanesulfonyl-benzoyl)-6-oxo-hexahydro-pyrrolo[3,2-b]pyrrol-1-yl]-2-oxo-ethyl}-benzamide]
Cc1ccccc1C(=O)N1CC(=O)[C@@H]2[C@H]1CCN2C(=O)[C@H](CC1CCCCC1)NC(=O)c1ccsc1 [Example 291, (3aR,6aS)-Thiophene-3-carboxylic acid {(1S)-1-cyclohexylmethyl-2-[4-(2-methyl-benzoyl)-6-oxo-hexahydro-pyrrolo[3,2-b]pyrrol-1-yl]-2-oxo-ethyl}-amide]
CN(C)c1ccc(C(=O)N[C@@H](Cc2ccc(O)cc2)C(=O)N2CC[C@@H]3[C@H]2C(=O)CN3C(=O)c2cccs2)cc1 [Example 359, (3aR,6aS)-4-Dimethylamino-N-{(1S)-1-(4-hydroxy-benzyl)-2-oxo-2-[6-oxo-4-(thiophene-2-carbonyl)-hexahydro-pyrrolo[3,2-b]pyrrol-1-yl]-ethyl}-benzamide]
O=C(N[C@@H](CSCc1ccccc1)C(=O)N1CC[C@@H]2[C@H]1C(=O)CN2C(=O)c1ccsc1)c1ccsc1 [Example 272, (3aR,6aS)-Thiophene-3-carboxylic acid {(1R)-1-benzylsulfanylmethyl-2-oxo-2-[6-oxo-4-(thiophene-3-carbonyl)-hexahydro-pyrrolo[3,2-b]pyrrol-1-yl]-ethyl}-amide]
O=C(N[C@@H](CC1CCCCC1)C(=O)N1CC[C@@H]2[C@H]1C(=O)CN2C(=O)c1ccccc1)C(c1ccccc1)c1ccccc1 [Example 270, (3aR,6aS)-N-[(1S)-2-(4-Benzoyl-6-oxo-hexahydro-pyrrolo[3,2-b]pyrrol-1-yl)-1-cyclohexylmethyl-2-oxo-ethyl]-2,2-diphenyl-acetamide]
O=C(N[C@@H](CSCc1ccccc1)C(=O)N1CC[C@@H]2[C@H]1C(=O)CN2C(=O)c1ccccc1)c1cccs1 [Example 282, (3aR,6aS)-Thiophene-2-carboxylic acid [(1R)-2-(4-benzoyl-6-oxo-hexahydro-pyrrolo[3,2-b]pyrrole-1-yl)-1-benzylsulfanylmethyl-2-oxo-ethyl]-amide]
O=C(N[C@@H](CC1CCCCC1)C(=O)N1CC[C@@H]2[C@H]1C(=O)CN2C(=O)c1ccccc1)c1ccoc1 [Example 289, (3aR,6aS)-Furan-3-carboxylic acid [(1S)-2-(4-benzoyl-6-oxo-hexahydro-pyrrolo[3,2-b]pyrrole-1-yl)-1-cyclohexylmethyl-2-oxo-ethyl]-amide]
O=C(N[C@@H](CSCc1ccccc1)C(=O)N1CC[C@@H]2[C@H]1C(=O)CN2C(=O)c1ccccc1)c1ccccc1 [Example 285, (3aR,6aS)-N-[(1R)-2-(4-Benzoyl-6-oxo-hexahydro-pyrrolo[3,2-b]pyrrol-1-yl)-1-benzylsulfanylmethyl-2-oxo-ethyl]-benzamide]
O=C1CN(C(=O)c2ccccc2)[C@@H]2CCN(C(=O)[C@H](CC3CCCCC3)NC(=O)N3CCOCC3)[C@H]12 [Example 280, (3aR,6aS)-Morpholine-4-carboxylic acid [(1S)-2-(4-benzoyl-6-oxo-hexahydro-pyrrolo[3,2-b]pyrrole-1-yl)-1-cyclohexylmethyl-2-oxo-ethyl]-amide]
